{"source": "patent US20080103212A1", "about": "“Treatment of fruit in storage facility with solid derived diphenylamine anti scald agent” (priority 2006, published 2008)", "key": {"[1]": {"tested_on": "Granny Smith and Red Delicious apples", "assay": "Scald and decay observation of DPA-fogged apples in cold air storage (Example 1)", "assay_type": "in vivo", "source_text": "DPA was applied to Granny Smith and Red Delicious apples at a research facility. Solid, technical grade (99.5%) DPA was melted and applied to the apples in a storage facility as an aerosol using a commercial thermal fogger equipment, provided by Custom Chemical of Warden Wash., as described above. The apples were loaded into 20 bins, of 900 pounds each, of each variety and stacked in a three by three arrangement. The bins were stacked: five high in all of the back rows, in a 5-4-5 high arrangement in the center row and in a 4-3-4 arrangement in the front row. DPA was applied at a rate of 15 grams per ton. This represents a 50% excess to account for any loss in void spaces. The thermal fogging equipment was placed in the hallway of the storage facility with two 10 foot lengths of flex pipe attached to a porthole in the door of the sealed storage room. Fumigating started and reached optimum saturation in 15 minutes. The porthole was then sealed and the room was left alone for 16 hours. Application of the aerosol DPA began with the storage facility fans off. The fans were turned on after 10 minutes of aerosol DPA application and run at ambient temperatures for 12-16 hours. The morning after application the room was unsealed the apples, bins, storage walls and fan blades were checked for anomalies such as DAP sublimation as crystals and possible phytotoxicity on the fruit. […] After the initial inspection the bins were arranged outside of the building so samples could be taken. Each bin was marked as to its location in the room and samples were marked with those same ID codes. Samples were taken from the top of each bin and also by digging into the center of the bin. Each bin was effectively sampled two times. These samples were tested for DPA residual by gas chromatography. The bins were than transferred to a cold air storage facility and observed for five months. Periodically samples were collected for DPA residue, scald and decay analysis as describe below. After 6 weeks additional samples were taken and tested for DPA residual by gas chromatography. These samples were taken like the first set, eight apples from the top of the bin and then digging into the center for eight apples. After two months in common storage four bins were set out for evaluation, two Granny Smith and two Red Delicious. […] The next samples were taken one month later. […] One month later samples were taken in the same fashion as before, top and middle of the bins. Because a fungicide was not used, penicillium rot was showing in about 8% of the Red Delicious samples. The Granny Smith samples were starting to show some decay, roughly 1⁄2 percent. […] The next to last sample was taken about 6 weeks later. Scald was not a problem. […] The positive impact of the treatment was especially evident in the Granny Smith apples which are more susceptible to scald. The decay incidences were unchanged. As stated in the earlier, there was generally a slightly higher decay rate in Red Delicious compared to prior art drench type applications, which typically use one or a combination of two fungicides. The decay in this test was attributed to the lack of fungicide use in this trial."}, "[2]": {"tested_on": "Granny Smith and Red Delicious apples", "assay": "Inspection for phytotoxicity on the fruit the morning after DPA aerosol application (Example 1)", "assay_type": "in vivo", "conditions": "15 grams per ton DPA aerosol", "source_text": "DPA was applied to Granny Smith and Red Delicious apples at a research facility. Solid, technical grade (99.5%) DPA was melted and applied to the apples in a storage facility as an aerosol using a commercial thermal fogger equipment, provided by Custom Chemical of Warden Wash., as described above. The apples were loaded into 20 bins, of 900 pounds each, of each variety and stacked in a three by three arrangement. The bins were stacked: five high in all of the back rows, in a 5-4-5 high arrangement in the center row and in a 4-3-4 arrangement in the front row. DPA was applied at a rate of 15 grams per ton. This represents a 50% excess to account for any loss in void spaces. The thermal fogging equipment was placed in the hallway of the storage facility with two 10 foot lengths of flex pipe attached to a porthole in the door of the sealed storage room. Fumigating started and reached optimum saturation in 15 minutes. The porthole was then sealed and the room was left alone for 16 hours. Application of the aerosol DPA began with the storage facility fans off. The fans were turned on after 10 minutes of aerosol DPA application and run at ambient temperatures for 12-16 hours. The morning after application the room was unsealed the apples, bins, storage walls and fan blades were checked for anomalies such as DAP sublimation as crystals and possible phytotoxicity on the fruit."}}, "data": [{"smiles": "c1ccc(Nc2ccccc2)cc1", "note": "[DPA, diphenylamine]", "values": [{"measurement": "Scald", "setting": "[1]; after two months in common storage, two Granny Smith and two Red Delicious bins", "value": "No Scald was apparent in any bin"}, {"measurement": "Scald", "setting": "[1]; final assessment, approximately two weeks after the next to last sample", "value": "no additional scald"}, {"measurement": "Scald", "setting": "[1]; next to last sample, about 6 weeks later, all bins", "value": "no scald found in any bin"}, {"measurement": "Scald", "setting": "[1]; one month after the two-month evaluation, both varieties", "value": "Scald was not showing in either variety"}, {"measurement": "Scald", "setting": "[1]; two months after the two-month evaluation, both varieties", "value": "Scald was not apparent in either variety"}, {"measurement": "possible phytotoxicity on the fruit", "setting": "[2]", "value": "None was found"}]}]}
